Assay results from patent publication EP1332762A1, “Method of treating hyperprolactinemia and prolactinomas” (Cedars-Sinai Medical Center, priority 1997, dated 1998).
Positions of bridges follow the written chain, without caps; N, C: chain ends. Non-standard residues stand in square brackets, D forms with d. Residues, ends and D or L forms follow the SMILES beside them.

What was measured:
[1] = tested on: Cells derived from six prolactin-secreting pituitary adenomas; assay: Reduction of prolactin secretion from cultured prolactinoma cells (PRL by immunoradiometric assay); assay type: cell-based, human; conditions: for suppressed prolactin secretion: cell cultures from tumor 1; for suppressed prolactin secretion / suppressed prolactin release / effect on prolactin release: 3 hours; for response of prolactin secretion: cells of the four large male tumors (tumors 1-4); for response of prolactin secretion / effect on prolactin release / effect on prolactin production: result in words; for suppressed prolactin release / effect on prolactin production: large tumor 4 cell cultures; for suppressed prolactin release / effect on prolactin release: 10-100 nM; for effect on prolactin release: adenomatous cell cultures of tumor 1
hSSTR-2 = hSSTR-2 (Homo sapiens, UniProt P30874); assay: Somatostatin receptor binding assay ([125I-Tyr11]somatostatin-14, membranes of transfected CHO-K1 cells); conditions: radioligand 0.05 nM, 30 min at 30 °C
Sequence of hSSTR-2 (P30874 whole entry): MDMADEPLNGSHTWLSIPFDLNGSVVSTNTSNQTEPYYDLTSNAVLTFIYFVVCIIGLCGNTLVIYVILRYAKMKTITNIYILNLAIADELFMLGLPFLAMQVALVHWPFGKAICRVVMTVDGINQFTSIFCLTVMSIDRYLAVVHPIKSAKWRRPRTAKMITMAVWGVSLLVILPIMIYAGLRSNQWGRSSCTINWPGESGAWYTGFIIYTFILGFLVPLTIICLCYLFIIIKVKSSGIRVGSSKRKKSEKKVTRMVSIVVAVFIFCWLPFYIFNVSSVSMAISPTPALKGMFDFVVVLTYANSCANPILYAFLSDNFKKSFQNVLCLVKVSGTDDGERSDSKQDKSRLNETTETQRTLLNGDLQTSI

hSSTR-5 = hSSTR-5 (Homo sapiens, UniProt P35346); assay: as above; conditions: radioligand 0.05 nM, 30 min at 30 °C
Sequence of hSSTR-5 (P35346 whole entry): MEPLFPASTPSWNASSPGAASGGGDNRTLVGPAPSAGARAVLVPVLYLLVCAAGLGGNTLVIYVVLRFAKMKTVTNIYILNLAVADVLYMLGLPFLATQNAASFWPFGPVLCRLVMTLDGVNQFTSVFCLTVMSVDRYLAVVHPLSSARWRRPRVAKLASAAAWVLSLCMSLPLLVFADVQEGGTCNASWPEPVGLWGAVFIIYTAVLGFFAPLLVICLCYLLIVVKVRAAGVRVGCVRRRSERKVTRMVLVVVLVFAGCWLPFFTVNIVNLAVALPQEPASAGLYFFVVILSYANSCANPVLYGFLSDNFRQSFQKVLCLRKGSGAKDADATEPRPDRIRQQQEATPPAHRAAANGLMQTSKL

hSSTR-1 = hSSTR-1 (Homo sapiens, UniProt P30872); assay: as above; conditions: radioligand 0.05 nM, 30 min at 30 °C
Sequence of hSSTR-1 (P30872 whole entry): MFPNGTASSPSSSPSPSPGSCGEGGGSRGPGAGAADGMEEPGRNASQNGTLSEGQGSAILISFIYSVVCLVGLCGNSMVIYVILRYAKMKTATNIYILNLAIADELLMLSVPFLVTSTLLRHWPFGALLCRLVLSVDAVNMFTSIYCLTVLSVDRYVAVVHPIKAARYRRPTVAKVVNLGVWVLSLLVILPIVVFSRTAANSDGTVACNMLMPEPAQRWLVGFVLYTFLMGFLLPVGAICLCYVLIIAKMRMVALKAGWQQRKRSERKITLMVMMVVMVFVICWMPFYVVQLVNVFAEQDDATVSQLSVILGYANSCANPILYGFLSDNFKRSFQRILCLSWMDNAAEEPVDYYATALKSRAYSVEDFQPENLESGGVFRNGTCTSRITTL

hSSTR-4 = hSSTR-4 (Homo sapiens, UniProt P31391); assay: as above; conditions: radioligand 0.05 nM, 30 min at 30 °C
Sequence of hSSTR-4 (P31391 whole entry): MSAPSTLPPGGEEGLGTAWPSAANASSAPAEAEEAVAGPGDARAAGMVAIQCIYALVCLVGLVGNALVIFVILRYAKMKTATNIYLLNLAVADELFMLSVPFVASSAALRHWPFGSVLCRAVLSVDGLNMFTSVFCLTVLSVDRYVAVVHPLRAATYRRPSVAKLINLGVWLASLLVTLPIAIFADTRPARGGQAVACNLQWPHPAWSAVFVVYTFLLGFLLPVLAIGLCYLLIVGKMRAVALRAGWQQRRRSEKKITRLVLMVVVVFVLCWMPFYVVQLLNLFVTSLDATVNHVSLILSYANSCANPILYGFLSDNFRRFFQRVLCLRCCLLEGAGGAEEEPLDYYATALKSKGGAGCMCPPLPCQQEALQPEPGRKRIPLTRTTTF

hSSTR-3 = hSSTR-3 (Homo sapiens, UniProt P32745); assay: as above; conditions: radioligand 0.05 nM, 30 min at 30 °C
Sequence of hSSTR-3 (P32745 whole entry): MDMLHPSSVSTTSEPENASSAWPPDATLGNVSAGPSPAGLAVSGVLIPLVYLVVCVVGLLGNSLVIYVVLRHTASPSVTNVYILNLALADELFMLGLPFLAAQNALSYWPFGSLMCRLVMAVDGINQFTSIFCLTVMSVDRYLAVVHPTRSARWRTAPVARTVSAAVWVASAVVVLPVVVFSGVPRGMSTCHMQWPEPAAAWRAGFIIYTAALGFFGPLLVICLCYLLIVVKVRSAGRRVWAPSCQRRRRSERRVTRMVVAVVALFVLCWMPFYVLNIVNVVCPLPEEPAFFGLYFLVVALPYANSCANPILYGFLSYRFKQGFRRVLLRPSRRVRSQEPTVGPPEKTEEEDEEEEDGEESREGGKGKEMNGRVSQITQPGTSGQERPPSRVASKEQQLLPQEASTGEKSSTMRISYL

In the case of C[C@@H](O)[C@@H]1NC(=O)[C@H](CCCCN)NC(=O)[C@@H](Cc2c[nH]c3ccccc23)NC(=O)[C@H](Cc2ccccc2)NC(=O)[C@H](Cc2ccccc2)NC(=O)[C@@H](N)CSSC[C@@H](C(N)=O)NC(=O)[C@H](Cc2ccccc2)NC1=O [BIM-23268] (H-CFF[dW]KTFC-NH2; disulfide 1-8), the suppressed prolactin secretion ([1]; 10 nM, p<0.05) is reported as 36%, the “response of prolactin secretion” value [1] is reported as “suppression of prolactin secretion” and the suppressed prolactin ([1]; large tumor 3 cell cultures, 10 nM and 100 nM, dose dependent, p<0.05) is reported as “up to 29%”. The suppressed prolactin release ([1]; p<0.05) was “more than 30%” and the Prolactin release inhibited ([1]; tumor 2 cell cultures, 10 nM, versus controls, p<0.0005) was 38%.
With CC(C)[C@@H]1NC(=O)[C@H](CCCCN)NC(=O)[C@@H](Cc2c[nH]c3ccccc23)NC(=O)[C@H](Cc2ccc(O)cc2)NC(=O)[C@@H](NC(=O)[C@H](N)Cc2ccc3ccccc3c2)CSSC[C@@H](C(=O)N[C@H](C(N)=O)[C@@H](C)O)NC1=O [Lanreotide] the Ki (hSSTR-2) was 0.75 nM, the “effect on prolactin release” value [1] was “did not affect prolactin release” and the “response of prolactin secretion” value [1] was “failed to respond”.
For CC[C@@H]1NC(=O)[C@H](CCCCN)NC(=O)[C@@H](Cc2c[nH]c3ccccc23)NC(=O)[C@H](Cc2ccc(O)cc2)NC(=O)[C@@H](NC(=O)[C@H](N)Cc2ccccc2)CSSC[C@@H](C(=O)N[C@H](C(N)=O)[C@@H](C)O)NC1=O [BIM-23023], the “effect on prolactin release” value [1] was “did not affect prolactin release”.
CC[C@@H]1NC(=O)[C@H](CCCCN)NC(=O)[C@@H](Cc2c[nH]c3ccccc23)NC(=O)[C@H](Cc2ccc(O)cc2)NC(=O)[C@@H](NC(=O)[C@@H](Cc2ccccc2)NS(=O)(=O)CCN2CCN(CCO)CC2)CSSC[C@@H](C(=O)N[C@H](C(N)=O)[C@@H](C)O)NC1=O [BIM-23197] was tested, and the “effect on prolactin release” value [1] was “did not affect prolactin release”, the “response of prolactin secretion” value [1] was “failed to respond” and the “effect on prolactin production” value [1] was “modestly stimulated prolactin production”.
For CC[C@@H]1NC(=O)[C@H](CCCCN)NC(=O)[C@@H](Cc2c[nH]c3ccccc23)NC(=O)[C@H](Cc2ccc(O)cc2)NC(=O)[C@@H](NC(=O)[C@@H](Cc2ccccc2)NC(=O)CN2CCN(CCO)CC2)CSSC[C@@H](C(=O)N[C@H](C(N)=O)[C@@H](C)O)NC1=O [BIM-23190], the “effect on prolactin release” value [1] was “did not affect prolactin release”, the “response of prolactin secretion” value [1] was “failed to respond” and the “effect on prolactin production” value [1] was “modestly stimulated prolactin production”.
Work on C[C@@H](O)[C@H](NC(=O)[C@H](Cc1ccccc1)NC(=O)[C@@H](NC(=O)[C@H](CCCCN)NC(=O)[C@@H](Cc1c[nH]c2ccccc12)NC(=O)[C@H](Cc1ccccc1)NC(=O)[C@H](Cc1ccccc1)NC(=O)[C@H](N)Cc1ccccc1)[C@@H](C)O)C(N)=O [BIM-23052, H-D-Phe-Phe-Phe-D-Trp-Lys-Thr-Phe-Thr-NH2] (H-[dF]FF[dW]KTFT-NH2) yielded a Ki (hSSTR-5) of 1.22 nM, a Ki (hSSTR-1) of 97.6 nM and a Ki (hSSTR-2) of 12 nM. It also gave a Ki (hSSTR-4) of 127 nM, a Ki (hSSTR-3) of 5.6 nM and a suppressed prolactin secretion ([1]; 10 nM, p<0.05) of 33%. The “response of prolactin secretion” value [1] was “suppression of prolactin secretion” and the suppressed prolactin release ([1]; p<0.05) was “more than 30%”.
In the case of C[C@@H](O)[C@@H]1NC(=O)[C@H](CCCCN)NC(=O)[C@@H](Cc2c[nH]c3ccccc23)NC(=O)[C@H](Cc2ccccc2)NC(=O)[C@@H](NC(=O)[C@H](N)Cc2ccccc2)CSSC[C@@H](C(=O)N[C@H](CO)[C@@H](C)O)NC1=O [Octreotide], the “response of prolactin secretion” value [1] is reported as “failed to respond”.
